Data set [1] in a line: Cytotoxicity against human HePAD38 cells assessed as cell viability incubated for 72 hrs by MTT assay. It counts as cell-based. Background: Tetrazolium dyes change colour on reduction, which living cells bring about.
Data set [2] relates to Hepatitis B virus. Briefly: Antiviral activity against HBV infected in human HepAD38 cells assessed as inhibition of viral DNA at 10 uM incubated for 4 days by SYBR green dye based RT-PCR analysis relative to control. Conditions: HePAD38, 96 h, time 4 day. It counts as functional.
Data set [3] in a line: Cytotoxicity against human HepG2 cells assessed as cell viability incubated for 72 hrs by MTT assay. It counts as cell-based.

Where only a bound is given, the exact number is not on record here.

Regarding `C=C1C[C@H](OC(C)=O)[C@H](OC(C)=O)[C@]2(C)[C@@H](OC(C)=O)/C=C/C(=C)[C@H](Cl)[C@@H]3OC(=O)[C@H](C)[C@@]3(O)[C@@H](OC(C)=O)[C@@H]12` [FRAJUNOLIDE H], the CC50 at 72 h in data set [1] and in data set [3] was above 100 µM in each case. Further, the inhibition at 10 µM in data set [2] was determined as 25%.

As to `C=C1/C=C/[C@H](OC(=O)CC)[C@@]2(C)[C@@H](OC(C)=O)[C@@H](OC(C)=O)C[C@]3(CO3)[C@@H]2[C@H](OC(C)=O)[C@]2(O)[C@@H](C)C(=O)O[C@H]2[C@H]1Cl`, the CC50 at 72 h in data set [1] and in data set [3] was above 100 µM in each case. Moreover, the inhibition at 10 µM in data set [2] was 0%.

As for `C=C1/C=C/[C@H](OC(C)=O)[C@@]2(C)[C@@H](OC(C)=O)[C@@H](OC(C)=O)C[C@]3(CO3)[C@@H]2[C@H](OC(C)=O)[C@]2(O)[C@@H](C)C(=O)O[C@H]2[C@H]1Cl` [FRAJUNOLIDE I], the CC50 at 72 h in data set [1] and in data set [3] was above 100 µM throughout. Moreover, the inhibition at 10 µM in data set [2] was 41%.

Turning to `CC(=O)OC/C1=C/[C@@H]2OC(=O)[C@H](C)[C@@]2(O)[C@@H](OC(C)=O)[C@H]2[C@]3(CC[C@H](OC(C)=O)[C@]2(C)[C@@H](OC(C)=O)C[C@H]1OC(C)=O)CO3`, the CC50 at 72 h in data set [1] and in data set [3] was above 100 µM in each case. The inhibition at 10 µM in data set [2] stood at 0%.

For `C=C1CC[C@H](OC(C)=O)[C@]2(C)[C@@H](OC(C)=O)C[C@@H](O)/C(C)=C\[C@@H]3OC(=O)[C@H](C)[C@@]3(O)[C@@H](OC(C)=O)[C@@H]12`, the CC50 at 72 h in data set [1] and in data set [3] was above 100 µM throughout. Besides, the inhibition at 10 µM in data set [2] came to 12%.

On to `C=C1CC[C@H](OC(C)=O)[C@]2(C)[C@@H](OC(C)=O)C[C@@]3(O)O[C@@]4([C@H](C=C3CO)OC(=O)[C@@H]4C)[C@@H](OC(C)=O)[C@@H]12`, for which the CC50 at 72 h in data set [1] and in data set [3] was above 100 µM throughout. Besides, the inhibition at 10 µM in data set [2] stood at 0%.

As for `CC(=O)O[C@H]1CC[C@]2(CO2)[C@@H]2[C@H](OC(C)=O)[C@@]3(O)[C@H](/C=C(CCl)\C=C/[C@H](OC(=O)COC(=O)CC(C)C)[C@@]12C)OC(=O)[C@@H]3C`, the CC50 at 72 h in data set [1] and in data set [3] was above 100 µM in each case. In addition, the inhibition at 10 µM in data set [2] amounted to 0%.

As to `C=C1CC[C@H](OC(C)=O)[C@]2(C)[C@@H](OC(C)=O)C[C@@H](OC(C)=O)/C(C)=C\[C@@H]3OC(=O)[C@H](C)[C@@]3(O)[C@@H](OC(C)=O)[C@@H]12`, the CC50 at 72 h in data set [1] and in data set [3] was above 100 µM throughout. For the same compound, in data set [2], the inhibition at 10 µM is 31%.

For the compound `C=C1C[C@H](OC(C)=O)[C@H](OC(C)=O)[C@@]2(C)[C@H]1[C@H](OC(C)=O)[C@@]13O[C@@H](C(=C)[C@H](Cl)[C@@H]1OC(=O)[C@@H]3C)[C@@H](O)[C@@H]2OC(C)=O`, the CC50 at 72 h in data set [1] and in data set [3] was above 100 µM each time. In data set [2], the inhibition at 10 µM is 0%.

`C=C1[C@H](OC(C)=O)C[C@H](OC(=O)CC)[C@@]2(C)[C@@H](OC(C)=O)CC[C@]3(CO3)[C@@H]2[C@H](OC(C)=O)[C@]2(O)[C@@H](C)C(=O)O[C@H]2[C@H]1Cl`: the CC50 at 72 h in data set [1] and in data set [3] was above 100 µM each time. Besides, the inhibition at 10 µM in data set [2] was found to be 0%.

`C=C1[C@H](Cl)[C@@H]2OC(=O)[C@H](C)[C@]23O[C@]1(O)C[C@H](OC(C)=O)[C@@]1(C)[C@@H](OC(C)=O)CC[C@]2(CO2)[C@@H]1[C@@H]3OC(C)=O`: the CC50 at 72 h in data set [1] and in data set [3] was above 100 µM throughout. Also, the inhibition at 10 µM in data set [2] worked out at 4%.

For the compound `Nc1ccn([C@@H]2CS[C@H](CO)O2)c(=O)n1` [LAMIVUDINE], the inhibition at 10 µM in data set [2] worked out at 70%.

As to `C=C1CC[C@H](OC(C)=O)[C@]2(C)[C@@H](OC(C)=O)/C=C/[C@]3(CO3)[C@H](Cl)[C@@H]3OC(=O)[C@H](C)[C@@]3(O)[C@@H](OC(C)=O)[C@@H]12`, the CC50 at 72 h in data set [1] and in data set [3] was above 100 µM throughout. Further, in data set [2], the inhibition at 10 µM is 0%.

As to `C=C1CC[C@H](OC(C)=O)[C@]2(C)[C@@H](OC(C)=O)/C=C/C(COC(C)=O)=C\[C@@H]3OC(=O)[C@H](C)[C@@]3(O)[C@@H](OC(C)=O)[C@@H]12`, the CC50 at 72 h in data set [1] and in data set [3] was above 100 µM in each case. Also, the inhibition at 10 µM in data set [2] turned out to be 0%.

Regarding `C=C1CC[C@H](OC(C)=O)[C@@]2(C)[C@H]1[C@H](OC(C)=O)[C@@]13O[C@@H](C(=C)[C@H](Cl)[C@@H]1OC(=O)[C@@H]3C)[C@@H](O)[C@@H]2OC(C)=O`, the CC50 at 72 h in data set [1] and in data set [3] was above 100 µM each time. In addition, the inhibition at 10 µM in data set [2] was found to be 10%.

For the compound `C=C1CC[C@H](OC(C)=O)[C@]2(C)[C@@H](OC(C)=O)C[C@@H](OC(C)=O)C(=C)[C@H](Cl)[C@@H]3OC(=O)[C@H](C)[C@@]3(O)[C@@H](OC(C)=O)[C@@H]12`, the CC50 at 72 h in data set [1] and in data set [3] was above 100 µM in each case. Further, the inhibition at 10 µM in data set [2] is 63%.

`C=C1[C@H]2O[C@H]2[C@H](OC(C)=O)[C@@]2(C)[C@@H](OC(C)=O)CC[C@]3(CO3)[C@@H]2[C@H](OC(C)=O)[C@]2(O)[C@@H](C)C(=O)O[C@H]2[C@H]1Cl`: the CC50 at 72 h in data set [1] and in data set [3] was above 100 µM in each case. Further, the inhibition at 10 µM in data set [2] worked out at 29%.

For the compound `C=C1CC[C@H](OC(C)=O)[C@]2(C)[C@@H](OC(=O)COC(C)=O)/C=C\C(=C)[C@H](Cl)[C@@H]3OC(=O)[C@H](C)[C@@]3(O)[C@@H](OC(C)=O)[C@@H]12`, the CC50 at 72 h in data set [1] and in data set [3] was above 100 µM throughout. In addition, the inhibition at 10 µM in data set [2] is 6%.

As to `C=C1CC[C@H](OC(C)=O)[C@]2(C)[C@@H](OC(C)=O)C[C@@H](OC(C)=O)/C(CCl)=C\[C@@H]3OC(=O)[C@H](C)[C@@]3(O)[C@@H](OC(C)=O)[C@@H]12`, the CC50 at 72 h in data set [1] and in data set [3] was above 100 µM each time. The inhibition at 10 µM in data set [2] worked out at 0%.

Take `C=C1[C@@H](OC(C)=O)C[C@H](OC(C)=O)[C@]2(C)[C@@H](OC(C)=O)C[C@@H](OC(C)=O)/C(C)=C\[C@@H]3OC(=O)[C@H](C)[C@@]3(O)[C@@H](OC(C)=O)[C@@H]12`: the CC50 at 72 h in data set [1] and in data set [3] was above 100 µM in each case. The inhibition at 10 µM in data set [2] worked out at 0%.

With `C=C1CC[C@H](OC(C)=O)[C@]2(C)[C@@H](OC(C)=O)C[C@@H](OC(C)=O)/C(C(=O)OC)=C\[C@@H]3OC(=O)[C@H](C)[C@@]3(O)[C@@H](OC(C)=O)[C@@H]12`, the CC50 at 72 h in data set [1] and in data set [3] was above 100 µM in each case. Moreover, in data set [2], the inhibition at 10 µM was 1%.

In the case of `C=C1[C@H](OC(C)=O)C[C@H](OC(C)=O)[C@@]2(C)[C@@H](OC(C)=O)CC[C@]3(CO3)[C@@H]2[C@H](OC(C)=O)[C@]2(O)[C@@H](C)C(=O)O[C@H]2[C@H]1Cl`, the CC50 at 72 h in data set [1] and in data set [3] was above 100 µM each time. Further, in data set [2], the inhibition at 10 µM was found to be 39%.

Take `C=C1/C=C\[C@H](OC(C)=O)[C@@]2(C)[C@@H](OC(C)=O)CC[C@]3(CO3)[C@@H]2[C@H](OC(C)=O)[C@]2(O)[C@@H](C)C(=O)O[C@H]2[C@H]1Cl`: the CC50 at 72 h in data set [1] and in data set [3] was above 100 µM each time. Besides, in data set [2], the inhibition at 10 µM amounted to 0%.

Turning to `C=C1/C=C\[C@H](OC(=O)COC(=O)CC(C)C)[C@@]2(C)[C@@H](OC(C)=O)CC[C@]3(CO3)[C@@H]2[C@H](OC(C)=O)[C@]2(O)[C@@H](C)C(=O)O[C@H]2[C@H]1Cl` [FRAJUNOLIDE G], the CC50 at 72 h in data set [1] and in data set [3] was above 100 µM throughout. Moreover, the inhibition at 10 µM in data set [2] turned out to be 0%.

Regarding `CC(=O)OCC1=C/[C@@H]2OC(=O)[C@H](C)[C@@]2(O)[C@@H](OC(C)=O)[C@H]2[C@]3(CC[C@H](OC(C)=O)[C@]2(C)[C@@H](OC(=O)COC(=O)CC(C)C)/C=C\1)CO3`, the CC50 at 72 h in data set [1] and in data set [3] was above 100 µM in each case. The inhibition at 10 µM in data set [2] came out at 0%.

As to `C=C1[C@H](Cl)[C@@H]2OC(=O)[C@H](C)[C@]23O[C@@H]1[C@@H](O)[C@H](OC(C)=O)[C@@]1(C)[C@@H](OC(C)=O)CC[C@]2(CO2)[C@@H]1[C@@H]3OC(C)=O`, the CC50 at 72 h in data set [1] and in data set [3] was above 100 µM in each case. Also, the inhibition at 10 µM in data set [2] was determined as 0%.

Take `C=C1CC[C@H](OC(C)=O)[C@]2(C)[C@@H](OC(C)=O)C[C@@H](OC(C)=O)/C(CO)=C\[C@@H]3OC(=O)[C@H](C)[C@@]3(O)[C@@H](OC(C)=O)[C@@H]12`: the CC50 at 72 h in data set [1] and in data set [3] was above 100 µM in each case. In addition, the inhibition at 10 µM in data set [2] was found to be 0%.

As for `CC(=O)O[C@H]1CC[C@]2(CO2)[C@@H]2[C@H](OC(C)=O)[C@@]3(O)[C@H](/C=C(/C)[C@H](OC(C)=O)C[C@H](OC(C)=O)[C@@]12C)OC(=O)[C@@H]3C` [11ALPHA,20ALPHA-EPOXYJUNCEELLOLIDE], the CC50 at 72 h in data set [1] and in data set [3] was above 100 µM throughout. Also, the inhibition at 10 µM in data set [2] is 3%.

For the compound `C=C1/C=C\[C@H](OC(=O)COC(C)=O)[C@@]2(C)[C@@H](OC(C)=O)CC[C@]3(CO3)[C@@H]2[C@H](OC(C)=O)[C@]2(O)[C@@H](C)C(=O)O[C@H]2[C@H]1Cl`, the CC50 at 72 h in data set [1] and in data set [3] was above 100 µM each time. In data set [2], the inhibition at 10 µM was 0%.

As to `C=C1CC[C@H](OC(C)=O)[C@]2(C)[C@@H](OC(C)=O)C[C@@]3(O)O[C@]4([C@@H](C)C(=O)O[C@H]4[C@@H](Cl)C3=C)[C@@H](OC(C)=O)[C@@H]12`, the CC50 at 72 h in data set [1] and in data set [3] was above 100 µM each time. Also, the inhibition at 10 µM in data set [2] worked out at 40%.

`C=C1CC[C@H](OC(C)=O)[C@@]2(C)[C@H]1[C@H](OC(C)=O)[C@@]13O[C@@H](C(=C)[C@H](Cl)[C@@H]1OC(=O)[C@@H]3C)[C@@H](OC(C)=O)[C@@H]2OC(C)=O`: the CC50 at 72 h in data set [1] and in data set [3] was above 100 µM throughout. Also, in data set [2], the inhibition at 10 µM was 27%.

As usually defined, the CC50 is the concentration that lowers cell viability or growth by half. Broadly, the inhibition is how much of the control response was suppressed.

Values taken from ChEMBL document CHEMBL4725284, “Junceellolide B, a novel inhibitor of Hepatitis B virus” (Bioorg Med Chem, 2020).
